In ChEMBL document CHEMBL5532651, “HDAC specificity and kinase off-targeting by purine-benzohydroxamate anti-hematological tumor agents” (Eur J Med Chem, 2024) one finds inhibition and IC50 data, which are given here for 2 compounds.

Test [1] addresses Phosphatidylinositol 4,5-bisphosphate 3-kinase catalytic subunit delta isoform (Homo sapiens) (UniProt O00329). As to the kind of experiment: Inhibition of PI3Kd (unknown origin) at 100 uM preincubated for 20 mins followed by 33P-ATP addition measured after 2 hrs by HotSpot kinase assay relative to control. Conditions: time 140.0 min.
Test [2] addresses Phosphatidylinositol 4,5-bisphosphate 3-kinase catalytic subunit gamma isoform (Homo sapiens) (UniProt P48736). The test is described as follows: Inhibition of PI3Kg (unknown origin) at 100 uM preincubated for 20 mins followed by 33P-ATP addition measured after 2 hrs by HotSpot kinase assay relative to control. To be noted: time 140.0 min.
The target in test [3] is Tyrosine-protein kinase JAK1 (Homo sapiens) (UniProt P23458). The test is described as follows: Inhibition of JAK1 (unknown origin) at 100 uM preincubated for 20 mins followed by 33P-ATP addition measured after 2 hrs by HotSpot kinase assay relative to control. To be noted: time 140.0 min.
The target in test [4] is Cyclin-dependent kinase 4 (Homo sapiens) (UniProt P11802). The test is described as follows: Inhibition of CDK4 (unknown origin) at 100 uM preincubated for 20 mins followed by 33P-ATP addition measured after 2 hrs by HotSpot kinase assay relative to control. To be noted: time 140.0 min.
For test [5], the target named is Tyrosine-protein kinase JAK3 (Homo sapiens, UniProt P52333). The test is described as follows: Inhibition of recombinant human JAK3 (781 to 1124 residues) in presence of ATP by ELISA.
In test [6] the target is Cyclin-dependent kinase 6 (Homo sapiens) (UniProt Q00534). As to the kind of experiment: Inhibition of CDK6 (unknown origin) at 100 uM preincubated for 20 mins followed by 33P-ATP addition measured after 2 hrs by HotSpot kinase assay relative to control. Conditions: time 140.0 min.
The target of test [7] is Tyrosine-protein kinase SYK (Homo sapiens) (UniProt P43405). As to the kind of experiment: Inhibition of SYK (unknown origin) at 100 uM preincubated for 20 mins followed by 33P-ATP addition measured after 2 hrs by HotSpot kinase assay relative to control. Conditions: time 140.0 min.
Test [8] concerns the target Phosphatidylinositol 4,5-bisphosphate 3-kinase catalytic subunit beta isoform (Homo sapiens) (UniProt P42338). The test is described as follows: Inhibition of PI3Kb (unknown origin) at 100 uM preincubated for 20 mins followed by 33P-ATP addition measured after 2 hrs by HotSpot kinase assay relative to control. Conditions: time 140.0 min.
Test [9] deals with Tyrosine-protein kinase BTK (Homo sapiens) (UniProt Q06187). As to the kind of experiment: Inhibition of BTK (unknown origin) at 100 uM preincubated for 20 mins followed by 33P-ATP addition measured after 2 hrs by HotSpot kinase assay relative to control. Conditions: time 140.0 min.
Test [10] has as its target Phosphatidylinositol 4,5-bisphosphate 3-kinase catalytic subunit alpha isoform (Homo sapiens) (UniProt P42336). As to the kind of experiment: Inhibition of PI3Ka (unknown origin) at 100 uM preincubated for 20 mins followed by 33P-ATP addition measured after 2 hrs by HotSpot kinase assay relative to control. To be noted: time 140.0 min.
In test [11] the test system is NAMALVA. The test is described as follows: Cytotoxicity against human NAMALVA cells assessed as cell growth inhibition at 0.1 to 10.5 uM by MTT assay. The format is functional, cell-based. To be noted: dose 0.1-10.5 µM, time lower 24.0 hrs, time upper […], TDE = time-dependent effect. (Tetrazolium dyes change colour on reduction, which living cells bring about.)
The test system of test [12] is Jurkat. The test is described as follows: Cytotoxicity against human Jurkat cells assessed as cell growth inhibition at 0.02 to 1.3 uM by MTT assay. Type of test: functional, cell-based. To be noted: dose 0.02-1.3 µM, time lower 24.0 hrs, time upper […], TDE = time-dependent effect.
Test [13] deals with T1, Tyrosine-protein kinase JAK2 (Homo sapiens, UniProt O60674). As to the kind of experiment: Inhibition of JAK2 (unknown origin) preincubated for 30 mins followed by ATP addition measured after 30 mins by HTRF assay.
Test [14] addresses T1, Tyrosine-protein kinase JAK2. The test is described as follows: Inhibition of JAK2 (unknown origin) at 100 uM preincubated for 20 mins followed by 33P-ATP addition measured after 2 hrs by HotSpot kinase assay relative to control. To be noted: time 140.0 min.
Test [15] concerns the target High affinity nerve growth factor receptor (Homo sapiens) (UniProt P04629). As to the kind of experiment: Inhibition of TRKa (unknown origin) at 100 uM preincubated for 20 mins followed by 33P-ATP addition measured after 2 hrs by HotSpot kinase assay relative to control. Conditions: time 140.0 min.
Test [16] concerns Jurkat. As to the kind of experiment: Cytotoxicity against human Jurkat cells assessed as cell growth inhibition at 0.05 to 1.2 uM by MTT assay. Type of test: functional, cell-based. To be noted: dose 0.05-1.2 µM, time lower 24.0 hrs, time upper […], TDE = time-dependent effect.
The test system of the next test is U-937. The test is described as follows: Cytotoxicity against human U-937 cells assessed as cell growth inhibition at 0.7 to 2.5 uM by MTT assay. Type of test: functional, cell-based. Conditions: dose 0.7-2.5 µM, time lower 24.0 hrs, time upper […], TDE = time-dependent effect.
The test system of test [17] is NAMALVA. As to the kind of experiment: Cytotoxicity against human NAMALVA cells assessed as cell growth inhibition at 0.1 to 9.9 uM by MTT assay. Type of test: functional, cell-based. To be noted: dose 0.1-9.9 µM, time lower 24.0 hrs, time upper […], TDE = time-dependent effect.

T1 sequence (O60674 whole entry): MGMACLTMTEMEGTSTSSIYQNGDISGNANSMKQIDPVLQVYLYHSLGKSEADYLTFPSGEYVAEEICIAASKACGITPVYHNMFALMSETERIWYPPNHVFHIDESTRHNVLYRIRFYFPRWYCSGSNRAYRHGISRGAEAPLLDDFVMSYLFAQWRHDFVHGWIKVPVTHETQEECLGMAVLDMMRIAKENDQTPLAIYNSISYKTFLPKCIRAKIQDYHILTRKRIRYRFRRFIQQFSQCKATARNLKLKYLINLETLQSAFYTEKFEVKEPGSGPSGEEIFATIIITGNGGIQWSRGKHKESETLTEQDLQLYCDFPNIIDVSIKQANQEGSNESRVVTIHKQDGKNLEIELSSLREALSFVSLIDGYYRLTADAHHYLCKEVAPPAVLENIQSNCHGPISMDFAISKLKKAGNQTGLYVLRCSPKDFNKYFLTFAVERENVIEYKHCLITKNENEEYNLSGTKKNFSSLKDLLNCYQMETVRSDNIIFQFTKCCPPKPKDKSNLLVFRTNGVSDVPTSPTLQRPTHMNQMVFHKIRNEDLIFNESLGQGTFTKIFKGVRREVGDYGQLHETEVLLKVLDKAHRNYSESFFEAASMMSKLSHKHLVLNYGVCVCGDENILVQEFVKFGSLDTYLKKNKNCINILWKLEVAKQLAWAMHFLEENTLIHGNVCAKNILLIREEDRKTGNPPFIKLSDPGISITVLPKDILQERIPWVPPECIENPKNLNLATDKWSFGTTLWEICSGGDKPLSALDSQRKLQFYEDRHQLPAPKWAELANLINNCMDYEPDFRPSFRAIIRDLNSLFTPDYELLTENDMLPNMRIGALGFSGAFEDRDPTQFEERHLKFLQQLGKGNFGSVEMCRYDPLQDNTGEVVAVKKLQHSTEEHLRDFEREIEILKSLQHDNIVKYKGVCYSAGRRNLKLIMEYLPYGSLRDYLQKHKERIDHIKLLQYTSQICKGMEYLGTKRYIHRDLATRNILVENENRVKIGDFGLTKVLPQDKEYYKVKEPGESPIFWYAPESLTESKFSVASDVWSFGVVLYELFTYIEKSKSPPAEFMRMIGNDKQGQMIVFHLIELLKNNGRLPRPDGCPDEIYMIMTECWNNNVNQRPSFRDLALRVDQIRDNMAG
Phosphatidylinositol 4,5-bisphosphate 3-kinase catalytic subunit alpha isoform (Homo sapiens), sequence (P42336 whole entry, canonical isoform): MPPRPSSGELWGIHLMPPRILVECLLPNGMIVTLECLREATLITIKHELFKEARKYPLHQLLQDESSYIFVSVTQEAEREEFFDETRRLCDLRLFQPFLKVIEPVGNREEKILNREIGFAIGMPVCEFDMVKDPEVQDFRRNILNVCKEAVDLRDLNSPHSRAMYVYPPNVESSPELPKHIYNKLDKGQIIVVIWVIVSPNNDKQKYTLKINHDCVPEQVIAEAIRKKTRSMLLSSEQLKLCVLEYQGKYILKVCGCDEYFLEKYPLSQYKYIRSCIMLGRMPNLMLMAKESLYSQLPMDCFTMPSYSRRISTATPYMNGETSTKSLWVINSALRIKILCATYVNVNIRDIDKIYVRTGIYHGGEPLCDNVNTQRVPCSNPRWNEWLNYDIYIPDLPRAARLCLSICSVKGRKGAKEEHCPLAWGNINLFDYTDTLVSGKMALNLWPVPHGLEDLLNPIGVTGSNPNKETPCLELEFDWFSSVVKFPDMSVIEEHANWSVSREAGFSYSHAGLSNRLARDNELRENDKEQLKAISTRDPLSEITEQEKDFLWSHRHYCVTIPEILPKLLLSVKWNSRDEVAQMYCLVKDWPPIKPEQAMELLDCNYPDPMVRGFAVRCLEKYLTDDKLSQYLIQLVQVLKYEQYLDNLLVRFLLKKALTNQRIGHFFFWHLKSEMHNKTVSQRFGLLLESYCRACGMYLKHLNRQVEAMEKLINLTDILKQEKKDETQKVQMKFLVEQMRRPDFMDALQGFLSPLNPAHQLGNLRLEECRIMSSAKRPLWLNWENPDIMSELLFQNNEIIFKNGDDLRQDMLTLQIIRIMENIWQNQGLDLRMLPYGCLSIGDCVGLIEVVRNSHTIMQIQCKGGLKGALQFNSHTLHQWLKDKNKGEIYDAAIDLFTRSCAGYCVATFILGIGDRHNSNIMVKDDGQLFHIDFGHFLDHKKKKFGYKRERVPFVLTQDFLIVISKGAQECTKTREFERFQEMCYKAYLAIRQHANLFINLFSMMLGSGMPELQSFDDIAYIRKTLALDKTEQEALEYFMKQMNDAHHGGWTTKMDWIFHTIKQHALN
Tyrosine-protein kinase JAK3, sequence (P52333 whole entry, the tested form may be a part): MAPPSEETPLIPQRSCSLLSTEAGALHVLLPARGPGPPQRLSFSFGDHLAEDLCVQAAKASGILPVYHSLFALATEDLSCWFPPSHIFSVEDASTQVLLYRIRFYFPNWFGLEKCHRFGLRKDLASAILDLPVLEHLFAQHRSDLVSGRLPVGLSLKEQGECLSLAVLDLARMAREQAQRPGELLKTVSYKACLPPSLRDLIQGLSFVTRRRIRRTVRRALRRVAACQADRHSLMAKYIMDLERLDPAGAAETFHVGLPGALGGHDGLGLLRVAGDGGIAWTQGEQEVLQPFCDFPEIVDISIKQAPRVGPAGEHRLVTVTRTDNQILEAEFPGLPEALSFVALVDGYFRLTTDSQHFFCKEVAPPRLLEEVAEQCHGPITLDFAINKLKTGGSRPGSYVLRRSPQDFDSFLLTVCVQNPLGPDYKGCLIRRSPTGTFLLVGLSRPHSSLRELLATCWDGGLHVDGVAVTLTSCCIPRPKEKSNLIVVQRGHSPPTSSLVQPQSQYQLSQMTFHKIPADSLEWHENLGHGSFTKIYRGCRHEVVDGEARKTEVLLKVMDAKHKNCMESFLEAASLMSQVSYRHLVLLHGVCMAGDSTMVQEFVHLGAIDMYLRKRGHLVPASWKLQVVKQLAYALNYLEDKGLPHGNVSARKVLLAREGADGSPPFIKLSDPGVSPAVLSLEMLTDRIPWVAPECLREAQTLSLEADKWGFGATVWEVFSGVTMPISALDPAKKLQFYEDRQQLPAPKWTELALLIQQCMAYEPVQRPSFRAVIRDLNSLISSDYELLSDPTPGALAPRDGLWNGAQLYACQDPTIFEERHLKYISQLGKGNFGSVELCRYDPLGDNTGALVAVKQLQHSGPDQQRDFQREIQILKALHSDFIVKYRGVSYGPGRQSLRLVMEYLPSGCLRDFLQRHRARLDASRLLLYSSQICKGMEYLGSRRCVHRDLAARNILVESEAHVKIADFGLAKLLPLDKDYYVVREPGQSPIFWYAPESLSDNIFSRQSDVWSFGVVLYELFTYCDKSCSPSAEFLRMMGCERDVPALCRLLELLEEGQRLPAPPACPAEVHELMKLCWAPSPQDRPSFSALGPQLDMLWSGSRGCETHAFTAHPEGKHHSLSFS
Cyclin-dependent kinase 6 (Homo sapiens), sequence (Q00534 whole entry): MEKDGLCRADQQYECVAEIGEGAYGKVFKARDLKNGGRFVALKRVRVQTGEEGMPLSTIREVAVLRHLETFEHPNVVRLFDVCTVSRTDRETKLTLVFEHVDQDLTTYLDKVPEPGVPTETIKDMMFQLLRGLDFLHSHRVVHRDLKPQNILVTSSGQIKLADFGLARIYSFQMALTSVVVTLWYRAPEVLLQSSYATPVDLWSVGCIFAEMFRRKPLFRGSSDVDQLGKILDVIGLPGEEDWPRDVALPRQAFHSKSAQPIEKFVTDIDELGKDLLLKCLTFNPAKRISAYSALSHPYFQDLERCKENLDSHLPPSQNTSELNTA
High affinity nerve growth factor receptor (Homo sapiens), sequence (P04629 33-796 limits assumed): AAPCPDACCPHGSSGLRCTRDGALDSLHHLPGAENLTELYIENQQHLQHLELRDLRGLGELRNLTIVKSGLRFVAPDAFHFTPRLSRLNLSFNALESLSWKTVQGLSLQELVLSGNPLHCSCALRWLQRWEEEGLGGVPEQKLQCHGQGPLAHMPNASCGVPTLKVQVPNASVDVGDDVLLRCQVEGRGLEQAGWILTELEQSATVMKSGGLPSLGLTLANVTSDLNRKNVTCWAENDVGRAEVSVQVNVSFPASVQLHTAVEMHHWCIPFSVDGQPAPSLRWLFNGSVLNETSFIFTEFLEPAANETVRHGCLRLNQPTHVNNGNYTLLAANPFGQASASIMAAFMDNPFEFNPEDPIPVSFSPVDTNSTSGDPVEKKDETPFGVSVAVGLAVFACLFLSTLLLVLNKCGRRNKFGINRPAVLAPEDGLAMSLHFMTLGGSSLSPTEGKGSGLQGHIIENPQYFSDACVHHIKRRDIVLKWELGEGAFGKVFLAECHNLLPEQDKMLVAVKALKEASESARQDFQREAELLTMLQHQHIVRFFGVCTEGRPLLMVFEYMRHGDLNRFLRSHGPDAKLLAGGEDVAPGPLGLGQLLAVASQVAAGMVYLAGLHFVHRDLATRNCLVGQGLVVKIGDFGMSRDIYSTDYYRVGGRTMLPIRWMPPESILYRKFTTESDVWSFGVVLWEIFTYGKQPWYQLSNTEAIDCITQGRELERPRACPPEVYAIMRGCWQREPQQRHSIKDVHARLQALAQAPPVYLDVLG
Tyrosine-protein kinase BTK (Homo sapiens), sequence (Q06187 whole entry, canonical isoform): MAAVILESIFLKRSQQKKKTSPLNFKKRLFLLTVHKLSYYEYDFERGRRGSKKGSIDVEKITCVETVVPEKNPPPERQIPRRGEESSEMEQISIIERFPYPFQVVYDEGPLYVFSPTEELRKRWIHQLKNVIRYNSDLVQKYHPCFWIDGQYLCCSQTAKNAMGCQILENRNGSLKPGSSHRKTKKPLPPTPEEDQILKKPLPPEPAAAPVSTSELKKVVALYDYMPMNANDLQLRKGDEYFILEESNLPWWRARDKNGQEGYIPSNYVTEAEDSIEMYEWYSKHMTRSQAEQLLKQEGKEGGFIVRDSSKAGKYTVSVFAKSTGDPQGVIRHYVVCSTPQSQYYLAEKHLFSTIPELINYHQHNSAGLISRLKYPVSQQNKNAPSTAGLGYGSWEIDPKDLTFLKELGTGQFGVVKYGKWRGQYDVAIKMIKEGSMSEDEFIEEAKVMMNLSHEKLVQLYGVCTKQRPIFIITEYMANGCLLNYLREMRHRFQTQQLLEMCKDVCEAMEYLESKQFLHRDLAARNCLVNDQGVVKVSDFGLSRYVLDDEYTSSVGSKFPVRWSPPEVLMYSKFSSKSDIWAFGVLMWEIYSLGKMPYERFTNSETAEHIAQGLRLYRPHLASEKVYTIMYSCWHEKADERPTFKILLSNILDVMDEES

Usually inhibition stands for how much of the control response was suppressed. As a reminder, the IC50 is the concentration at which inhibition is half-maximal. On to `O=C(NO)c1ccc(Cn2cnc3c(Nc4ccc(F)c(Cl)c4)ncnc32)cc1`, for which the inhibition in test [1] amounted to 51.2%; in test [2], 44.2%; in test [3], 63.2%; in [4] it was 73.2%; in test [6], 38.6%; in test [7], 71.2%. Besides, the inhibition in [8] is 62%; in [9] it was 99.2%; in [10], 29.8%; in the test on NAMALVA [11], “Tde”; in the test with Jurkat [12], “Tde”; in test [14], 99.5%. The compound also showed an inhibition in [15] of 99.9%. Besides, the IC50 in [5] came out at 2.59 µM; in [13] it was 34.6 µM.

For the compound `COc1ccc(Nc2ncnc3c2ncn3Cc2ccc(C(=O)NO)cc2)cc1`, the inhibition entry in the test with Jurkat [16], with U-937 and with NAMALVA [17] was “Tde” each time.
